Experimental findings from paper PMC5624964, “ORP5 and ORP8 bind phosphatidylinositol-4, 5-biphosphate (PtdIns(4,5)P2) and regulate its level at the plasma membrane” (Nature Communications, 2017) are described below.

SMILES strings stand for the structures. Read-outs that look alike come from different tables or passages of the source.

A word on the Kd: it is a measure of binding affinity in units of concentration.

Common to all, as to assay: isothermal titration calorimetry
What all share (format): binding
On the technique in general: ITC needs no label: the signal is the heat of the interaction.

One experiment addresses T1, ORP8 ORD (Homo sapiens, UniProt Q9BZF1).
T1 construct: gene OSBPL8; ORD domain 400-778 of ORP8L, His6-ubiquitin tag removed by DUB without extra N-terminal residues, E. coli
T1 sequence (Q9BZF1 400-778): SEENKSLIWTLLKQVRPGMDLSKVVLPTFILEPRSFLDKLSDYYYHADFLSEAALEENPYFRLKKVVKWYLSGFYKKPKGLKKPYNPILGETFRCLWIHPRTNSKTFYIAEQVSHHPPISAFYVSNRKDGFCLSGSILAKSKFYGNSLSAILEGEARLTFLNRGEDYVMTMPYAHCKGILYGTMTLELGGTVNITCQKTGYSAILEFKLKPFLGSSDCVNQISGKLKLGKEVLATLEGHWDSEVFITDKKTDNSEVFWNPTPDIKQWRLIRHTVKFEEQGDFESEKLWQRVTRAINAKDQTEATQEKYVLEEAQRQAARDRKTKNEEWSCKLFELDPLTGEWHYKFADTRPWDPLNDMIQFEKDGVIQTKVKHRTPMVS
The source says:
isothermal titration calorimetry on ORP8 ORD

For another experiment, the target named is T2, ORP5 ORD (Homo sapiens, UniProt Q9H0X9).
T2 construct: gene OSBPL5; ORD domain 364-746 of ORP5A, His6-ubiquitin tag removed by DUB without extra N-terminal residues, E. coli
T2 sequence (Q9H0X9 364-746): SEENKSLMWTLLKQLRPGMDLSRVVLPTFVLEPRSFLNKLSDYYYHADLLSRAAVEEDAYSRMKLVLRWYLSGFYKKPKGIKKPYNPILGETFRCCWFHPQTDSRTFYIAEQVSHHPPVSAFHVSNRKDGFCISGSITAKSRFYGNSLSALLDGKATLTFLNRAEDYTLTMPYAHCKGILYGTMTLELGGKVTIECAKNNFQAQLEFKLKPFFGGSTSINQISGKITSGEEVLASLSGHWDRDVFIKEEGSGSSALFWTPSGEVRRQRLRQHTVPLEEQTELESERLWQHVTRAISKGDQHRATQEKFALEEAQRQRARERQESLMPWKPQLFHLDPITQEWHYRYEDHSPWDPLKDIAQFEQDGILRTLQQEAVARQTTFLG
The source says:
isothermal titration calorimetry on ORP5 ORD

The target in another experiment is T3, ORP8 PH (Homo sapiens, UniProt Q9BZF1).
T3 construct: gene OSBPL8; PH domain 149-265 of ORP8L, synthetic gene, N-terminal MGSSGSSG and C-terminal RSGPSSGLEEF linkers, GST tag cleaved by thrombin, E. coli
T3 sequence (Q9BZF1 149-265): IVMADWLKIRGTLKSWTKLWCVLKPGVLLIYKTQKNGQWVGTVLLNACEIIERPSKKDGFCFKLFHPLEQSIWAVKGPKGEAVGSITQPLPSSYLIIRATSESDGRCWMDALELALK
The source says:
isothermal titration calorimetry on ORP8 PH

The target of a further experiment is T4, ORP5 PH (Homo sapiens, UniProt Q9H0X9).
T4 construct: gene OSBPL5; PH domain 127-243 of ORP5A, synthetic gene, N-terminal MGSSGSSG and C-terminal RSGPSSGLEEF linkers, GST tag cleaved by thrombin, E. coli
T4 sequence (Q9H0X9 127-243): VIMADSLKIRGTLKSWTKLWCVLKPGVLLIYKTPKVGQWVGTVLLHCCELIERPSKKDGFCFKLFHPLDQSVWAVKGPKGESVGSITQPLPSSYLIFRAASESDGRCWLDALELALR
The source says:
isothermal titration calorimetry on ORP5 PH

Setting [1] is: water-soluble diC8 lipid, 25 °C, 50 mM Tris pH 8.0, 100 mM NaCl.

On to `CCCCCCCC(=O)OC[C@H](COP(=O)(O)O[C@@H]1[C@H](O)[C@H](OP(=O)(O)O)[C@@H](O)[C@H](O)[C@H]1O)OC(=O)CCCCCCC` [PtdIns(3)P], for which the Kd on ORP8 ORD is 1.7 ± 0.8 µM; on ORP5 ORD, 9 ± 2.7 µM.
Consider `CCCCCCCC(=O)OC[C@H](COP(=O)(O)O[C@H]1[C@H](O)[C@@H](O)[C@H](OP(=O)(O)O)[C@@H](O)[C@H]1O)OC(=O)CCCCCCC` [PtdIns(4)P], for which the Kd at ORP8 ORD (setting [1]) turned out to be 2.3 ± 0.3 µM; at ORP5 ORD (setting [1]) it was 6.7 ± 3.3 µM.
With `CCCCCCCC(=O)OC[C@H](COP(=O)(O)O[C@H]1[C@H](O)[C@@H](OP(=O)(O)O)[C@H](OP(=O)(O)O)[C@@H](OP(=O)(O)O)[C@H]1O)OC(=O)CCCCCCC` [PtdIns(3,4,5)P3], the figures for the Kd at ORP8 PH, at ORP5 PH (setting [1]) and on ORP5 ORD (setting [1]) were 11.8 ± 3.2 µM, 5.3 ± 2.4 µM and 1.1 ± 0.3 µM, respectively.
Regarding `CCCCCCCC(=O)OC[C@H](COP(=O)(O)O[C@H]1[C@H](O)[C@@H](O)[C@H](OP(=O)(O)O)[C@@H](OP(=O)(O)O)[C@H]1O)OC(=O)CCCCCCC` [PtdIns(3,4)P2], the dissociation constant (Kd) is 2.9 ± 0.1 µM on ORP8 PH, 16.3 ± 0.4 µM at ORP5 PH (setting [1]), 2.5 ± 0.6 µM on ORP8 ORD and 0.8 ± 0.8 µM on ORP5 ORD (setting [1]).
For the compound `CCCCCCCC(=O)OC[C@H](COP(=O)(O)O[C@@H]1[C@H](O)[C@H](O)[C@@H](OP(=O)(O)O)[C@H](OP(=O)(O)O)[C@H]1O)OC(=O)CCCCCCC` [PtdIns(4,5)P2], the Kd is 5.5 ± 1.2 µM at ORP8 PH, 7.3 ± 0.5 µM on ORP5 PH, 5.3 ± 0.4 µM on ORP8 ORD and 6.7 ± 1.5 µM on ORP5 ORD.
As to `CCCCCCCC(=O)OC[C@H](COP(=O)(O)O[C@H]1[C@H](O)[C@@H](OP(=O)(O)O)[C@H](O)[C@@H](O)[C@H]1O)OC(=O)CCCCCCC` [PtdIns(5)P], the Kd at ORP8 ORD came out at 5.9 ± 4.1 µM.
